Measured values as given in US12723063B2, “GIPR-agonist compounds” (Eli Lilly and Company, priority 2019, dated 2026).
*1 amine or outer side, *2 acyl side, *3 side chain or, on linkers, in order; H or OH if unused. Where a SMILES comes first, the peptide text is derived from it. Side-chain parts run from the residue outwards. [ ]: non-standard residue; d: D form. The star is where a group is joined. C20 diacid = O=C(O)CCCCCCCCCCCCCCCCCCC(=O)*; αMePhe(2-F) = C[C@](N)(Cc1ccccc1F)C(=O)O; γGlu = O=C(O)[C@H](CCC(=O)[*:2])N[*:1]; αMeF = C[C@](N)(Cc1ccccc1)C(=O)O; AEEA = NCCOCCOCC(=O)O; Aib = CC(C)(N)C(=O)O

Columns and labels:
[1] = target: T1, human glucagon receptor (GcgR) (Homo sapiens, UniProt P47871); assay: cAMP functional assay (HTRF) in HEK293 cells in presence of 0.1% casein; type: cell-based; conditions: HEK293 cells expressing human GcgR, geometric mean, read-out: hGcgR cAMP Rel EC50 nM (SEM, n)
T1 construct: expressed in transfected cells; host or cells: HEK293
T1 sequence (P47871 26-477): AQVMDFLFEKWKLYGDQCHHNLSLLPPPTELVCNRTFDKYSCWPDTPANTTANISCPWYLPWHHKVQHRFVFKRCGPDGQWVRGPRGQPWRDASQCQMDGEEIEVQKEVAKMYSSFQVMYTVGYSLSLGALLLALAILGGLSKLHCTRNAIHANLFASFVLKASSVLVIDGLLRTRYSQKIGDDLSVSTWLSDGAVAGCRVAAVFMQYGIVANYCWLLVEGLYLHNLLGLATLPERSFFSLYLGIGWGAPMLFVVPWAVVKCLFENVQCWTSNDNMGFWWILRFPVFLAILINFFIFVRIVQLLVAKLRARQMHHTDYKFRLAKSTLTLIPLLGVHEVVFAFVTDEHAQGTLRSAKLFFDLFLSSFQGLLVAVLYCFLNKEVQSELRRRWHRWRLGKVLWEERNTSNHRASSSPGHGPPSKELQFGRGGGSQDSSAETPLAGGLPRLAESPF

[2] = target: T2, human glucose-dependent insulinotropic peptide receptor (GIPR) (Homo sapiens, UniProt P48546); assay: as above; type: cell-based; conditions: HEK293 cells expressing human GIPR, geometric mean, read-out: hGIPR cAMP Rel EC50 nM (SEM, n)
T2 construct: expressed in transfected cells; host or cells: HEK293
T2 sequence (P48546 22-466): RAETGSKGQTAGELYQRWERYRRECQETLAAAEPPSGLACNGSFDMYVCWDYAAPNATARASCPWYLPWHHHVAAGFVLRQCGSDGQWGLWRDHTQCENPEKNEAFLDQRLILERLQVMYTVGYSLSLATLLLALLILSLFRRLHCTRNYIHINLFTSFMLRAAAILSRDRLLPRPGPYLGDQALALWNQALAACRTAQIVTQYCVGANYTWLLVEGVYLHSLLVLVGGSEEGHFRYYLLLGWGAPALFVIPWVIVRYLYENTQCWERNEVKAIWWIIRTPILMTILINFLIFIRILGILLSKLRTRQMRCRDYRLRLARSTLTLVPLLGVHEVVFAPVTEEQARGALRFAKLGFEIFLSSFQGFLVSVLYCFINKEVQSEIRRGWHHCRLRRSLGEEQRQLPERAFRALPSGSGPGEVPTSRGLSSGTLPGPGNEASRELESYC

| SMILES | EC50 [1] [nM] | EC50 [2] [nM] |
| --- | --- | --- |
| CC[C@H](C)[C@H](NC(=O)[C@H](CO)NC(=O)[C@H](Cc1ccc(O)cc1)NC(=O)[C@H](CC(=O)O)NC(=O)[C@H](CO)NC(=O)[C@@H](NC(=O)[C@](C)(Cc1ccccc1F)NC(=O)[C@@H](NC(=O)CNC(=O)[C@H](CCC(=O)O)NC(=O)C(C)(C)NC(=O)[C@@H](N)Cc1ccc(O)cc1)[C@@H](C)O)[C@@H](C)CC)C(=O)N[C@@H](C)C(=O)N[C@@H](CC(C)C)C(=O)N[C@@H](CC(=O)O)C(=O)N[C@@H](CCCCN)C(=O)N[C@H](C(=O)N[C@@H](Cc1c[nH]cn1)C(=O)N[C@@H](CCC(N)=O)C(=O)NC(C)(C)C(=O)N[C@@H](CCC(=O)O)C(=O)N[C@@H](Cc1ccccc1)C(=O)N[C@H](C(=O)N[C@@H](CC(N)=O)C(=O)N[C@@H](Cc1ccc(O)cc1)C(=O)N[C@@H](CCCCNC(=O)COCCOCCNC(=O)COCCOCCNC(=O)CC[C@H](NC(=O)CCCCCCCCCCCCCCCCCCC(=O)O)C(=O)O)C(=O)N[C@@H](CC(C)C)C(=O)N[C@@H](CCC(=O)O)C(=O)NCC(=O)NCC(=O)N1CCC[C@H]1C(=O)N[C@@H](CO)C(=O)N[C@@H](CO)C(=O)NCC(=O)N[C@@H](C)C(=O)N1CCC[C@H]1C(=O)N1CCC[C@H]1C(=O)N1CCC[C@H]1C(=O)N[C@@H](CO)C(N)=O)C(C)C)[C@@H](C)CC [Example 95] (H-Y[Aib]EGT[αMePhe(2-F)]ISDYSIALDKIHQ[Aib]EFVNYK([AEEA-AEEA-γGlu-C20 diacid])LEGGPSSGAPPPS-NH2) | > 5000 | 0.0272 |
| CC[C@H](C)[C@H](NC(=O)[C@H](CO)NC(=O)[C@H](Cc1ccc(O)cc1)NC(=O)[C@H](CC(=O)O)NC(=O)[C@H](CO)NC(=O)[C@@H](NC(=O)[C@H](Cc1ccccc1)NC(=O)[C@@H](NC(=O)CNC(=O)[C@H](CCC(=O)O)NC(=O)C(C)(C)NC(=O)[C@@H](N)Cc1ccc(O)cc1)[C@@H](C)O)[C@@H](C)CC)C(=O)N[C@@H](C)C(=O)N[C@@H](CC(C)C)C(=O)N[C@@H](CC(=O)O)C(=O)N[C@@H](CCCCN)C(=O)N[C@H](C(=O)N[C@@H](Cc1c[nH]cn1)C(=O)N[C@@H](CCC(N)=O)C(=O)NC(C)(C)C(=O)N[C@@H](CCC(=O)O)C(=O)N[C@@H](Cc1ccccc1)C(=O)N[C@H](C(=O)N[C@@H](CC(N)=O)C(=O)N[C@@H](Cc1ccc(O)cc1)C(=O)N[C@@H](CCCCNC(=O)COCCOCCNC(=O)COCCOCCNC(=O)CC[C@H](NC(=O)CCCCCCCCCCCCCCCCCCC(=O)O)C(=O)O)C(=O)N[C@@H](CC(C)C)C(=O)N[C@@H](C)C(=O)NCC(=O)NCC(=O)N1CCC[C@H]1C(=O)N[C@@H](CO)C(=O)N[C@@H](CO)C(=O)NCC(=O)N[C@@H](C)C(=O)N1CCC[C@H]1C(=O)N1CCC[C@H]1C(=O)N1CCC[C@H]1C(=O)N[C@@H](CO)C(N)=O)C(C)C)[C@@H](C)CC [Example 96] (H-Y[Aib]EGTFISDYSIALDKIHQ[Aib]EFVNYK([AEEA-AEEA-γGlu-C20 diacid])LAGGPSSGAPPPS-NH2) | > 5000 | 0.0251 |
| CC[C@H](C)[C@H](NC(=O)[C@H](CO)NC(=O)[C@H](Cc1ccc(O)cc1)NC(=O)[C@H](CC(=O)O)NC(=O)[C@H](CO)NC(=O)[C@@H](NC(=O)[C@](C)(Cc1ccccc1)NC(=O)[C@@H](NC(=O)CNC(=O)[C@H](CCC(=O)O)NC(=O)C(C)(C)NC(=O)[C@@H](N)Cc1ccc(O)cc1)[C@@H](C)O)[C@@H](C)CC)C(=O)N[C@@H](C)C(=O)N[C@@H](CC(C)C)C(=O)N[C@@H](CC(=O)O)C(=O)N[C@@H](CCCCN)C(=O)N[C@H](C(=O)N[C@@H](Cc1c[nH]cn1)C(=O)N[C@@H](CCC(N)=O)C(=O)NC(C)(C)C(=O)N[C@@H](CCC(=O)O)C(=O)N[C@@H](Cc1ccccc1)C(=O)N[C@H](C(=O)N[C@@H](CC(N)=O)C(=O)N[C@@H](Cc1ccc(O)cc1)C(=O)N[C@@H](CCCCNC(=O)COCCOCCNC(=O)COCCOCCNC(=O)CC[C@H](NC(=O)CCCCCCCCCCCCCCCCCCC(=O)O)C(=O)O)C(=O)N[C@@H](CC(C)C)C(=O)N[C@@H](C)C(=O)NCC(=O)NCC(=O)N1CCC[C@H]1C(=O)N[C@@H](CO)C(=O)N[C@@H](CO)C(=O)NCC(=O)N[C@@H](C)C(=O)N1CCC[C@H]1C(=O)N1CCC[C@H]1C(=O)N1CCC[C@H]1C(=O)N[C@@H](CO)C(N)=O)C(C)C)[C@@H](C)CC [Example 97] (H-Y[Aib]EGT[αMeF]ISDYSIALDKIHQ[Aib]EFVNYK([AEEA-AEEA-γGlu-C20 diacid])LAGGPSSGAPPPS-NH2) | > 5000 | 0.009 |
| CC[C@H](C)[C@H](NC(=O)[C@H](CO)NC(=O)[C@H](Cc1ccc(O)cc1)NC(=O)[C@H](CC(=O)O)NC(=O)[C@H](CO)NC(=O)[C@@H](NC(=O)[C@](C)(Cc1ccccc1F)NC(=O)[C@@H](NC(=O)CNC(=O)[C@H](CCC(=O)O)NC(=O)C(C)(C)NC(=O)[C@@H](N)Cc1ccc(O)cc1)[C@@H](C)O)[C@@H](C)CC)C(=O)N[C@@H](C)C(=O)N[C@@H](CC(C)C)C(=O)N[C@@H](CC(=O)O)C(=O)N[C@@H](CCCCN)C(=O)N[C@H](C(=O)N[C@@H](Cc1c[nH]cn1)C(=O)N[C@@H](CCC(N)=O)C(=O)NC(C)(C)C(=O)N[C@@H](CCC(=O)O)C(=O)N[C@@H](Cc1ccccc1)C(=O)N[C@H](C(=O)N[C@@H](CC(N)=O)C(=O)N[C@@H](Cc1ccc(O)cc1)C(=O)N[C@@H](CCCCNC(=O)COCCOCCNC(=O)COCCOCCNC(=O)CC[C@H](NC(=O)CCCCCCCCCCCCCCCCCCC(=O)O)C(=O)O)C(=O)N[C@@H](CC(C)C)C(=O)N[C@@H](C)C(=O)NCC(=O)NCC(=O)N1CCC[C@H]1C(=O)N[C@@H](CO)C(=O)N[C@@H](CO)C(=O)NCC(=O)N[C@@H](C)C(=O)N1CCC[C@H]1C(=O)N1CCC[C@H]1C(=O)N1CCC[C@H]1C(=O)N[C@@H](CO)C(N)=O)C(C)C)[C@@H](C)CC [Example 98] (H-Y[Aib]EGT[αMePhe(2-F)]ISDYSIALDKIHQ[Aib]EFVNYK([AEEA-AEEA-γGlu-C20 diacid])LAGGPSSGAPPPS-NH2) | > 5000 | 0.00718 |
| CC[C@H](C)[C@H](NC(=O)[C@H](CO)NC(=O)[C@H](Cc1ccc(O)cc1)NC(=O)[C@H](CC(=O)O)NC(=O)[C@H](CO)NC(=O)[C@@H](NC(=O)[C@](C)(Cc1ccccc1F)NC(=O)[C@@H](NC(=O)CNC(=O)[C@H](CCC(=O)O)NC(=O)C(C)(C)NC(=O)[C@@H](N)Cc1ccc(O)cc1)[C@@H](C)O)[C@@H](C)CC)C(=O)N[C@@H](C)C(=O)N[C@@H](CC(C)C)C(=O)N[C@@H](CC(=O)O)C(=O)N[C@@H](CCCCN)C(=O)N[C@H](C(=O)N[C@@H](Cc1c[nH]cn1)C(=O)N[C@@H](CCC(N)=O)C(=O)NC(C)(C)C(=O)N[C@@H](CC(=O)O)C(=O)N[C@@H](Cc1ccccc1)C(=O)N[C@H](C(=O)N[C@@H](CCC(=O)O)C(=O)N[C@@H](Cc1ccc(O)cc1)C(=O)N[C@@H](CCCCNC(=O)COCCOCCNC(=O)COCCOCCNC(=O)CC[C@H](NC(=O)CCCCCCCCCCCCCCCCCCC(=O)O)C(=O)O)C(=O)N[C@@H](CC(C)C)C(=O)N[C@@H](CCC(=O)O)C(=O)NCC(=O)NCC(=O)N1CCC[C@H]1C(=O)N[C@@H](CO)C(=O)N[C@@H](CO)C(=O)NCC(=O)N[C@@H](C)C(=O)N1CCC[C@H]1C(=O)N1CCC[C@H]1C(=O)N1CCC[C@H]1C(=O)N[C@@H](CO)C(N)=O)C(C)C)[C@@H](C)CC [Example 99] (H-Y[Aib]EGT[αMePhe(2-F)]ISDYSIALDKIHQ[Aib]DFVEYK([AEEA-AEEA-γGlu-C20 diacid])LEGGPSSGAPPPS-NH2) | > 5000 | 0.00454 |
